US9079866B2, “Flap modulators” (JANSSEN PHARMACEUTICA NV, priority 2013, dated 2015)
Structures can show the parent of a compound that is named as a salt. Where two headings read alike, the source gives them in different places.

Key:
human FLAP = human FLAP (Homo sapiens (Human), UniProt P20292); experiment: FLAP binding assay (HTRF format)
Method in brief: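 Binding of compounds to FLAP read out as HTRF ratio. Values are the mean of two assay plates, each sample run in duplicate per plate.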

[1] = tested on: leukotriene pathway in human whole blood (LTB4 levels); experiment: Human whole blood assay (A23187-stimulated LTB4); assay type: cell-based; conditions: Homo sapiens, read-out: LTB4 IC50 1:1
Method in brief: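 Heparinised human whole blood, diluted 1:1 in RPMI, was pre-incubated with test compounds for 15 min at 37° Celsius, then stimulated with A23187 (7 μg/mL) for 30 min at 37° Celsius. Plasma LTB4 was measured by immunoassay kit; IC50 from 4-parameter fit; single replicate, at least one healthy donor.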

[2] = human FLAP wild type, HTRF format, average of two plates, duplicates
[3] = human whole blood diluted 1:1 in RPMI, A23187-stimulated LTB4
[4] = human whole blood diluted 1:1, A23187-stimulated

Sequence of human FLAP (P20292 whole entry): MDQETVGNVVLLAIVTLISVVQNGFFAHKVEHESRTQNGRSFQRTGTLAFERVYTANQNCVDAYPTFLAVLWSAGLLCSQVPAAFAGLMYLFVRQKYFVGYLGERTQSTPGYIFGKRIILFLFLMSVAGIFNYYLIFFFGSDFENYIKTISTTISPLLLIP

SMILES	Ki (human FLAP; [2]) [µM]	IC50 [1, 3] [µM]	Ki (human FLAP; wild type FLAP, HTRF format) [µM]	IC50 [1, 4] [µM]	Ki (human FLAP; read-out: FLAP Binding wild type HTRF Ki) [µM]
N#CC1CCN(S(=O)(=O)c2ccccc2-c2ccc(-c3cnc(N)cn3)c(F)c2)CC1 [Example 64, 1-{[4′-(5-Aminopyrazin-2-yl)-3′-fluorobiphenyl-2-yl]sulfonyl}piperidine-4-carbonitrile]	0.002	0.006	–	–	–
Nc1cnc(-c2ccc(-c3ccccc3Sc3ccnc(N)n3)cc2F)cn1 [Example 242, 4-{[4′-(5-Aminopyrazin-2-yl)-3′-fluorobiphenyl-2-yl]sulfanyl}pyrimidin-2-amine hydrochloride]	0.001	0.004	–	–	–
Nc1ccc(-c2ccc(-c3ccccc3S(=O)(=O)N3C[C@@H]4C[C@H]3CO4)cc2F)cn1 [Example 356, 5-(2′-((1S,4S)-2-Oxa-5-azabicyclo[2.2.1]heptan-5-ylsulfonyl)-3-fluoro-[1,1′-biphenyl]-4-yl)pyridin-2-amine]	0.032	0.107	–	–	–
Nc1ncc(-c2ccc(-c3ccccc3S(=O)(=O)N3CCC[C@H]3CO)cc2F)cn1 [Example 277, [(2S)-1-{[4′-(2-Aminopyrimidin-5-yl)-3′-fluorobiphenyl-2-yl]sulfonyl}pyrrolidin-2-yl]methanol trifluoroacetic acid salt]	0.052	> 1	–	–	–
Nc1cnc(-c2ccc(-c3ccccc3S(=O)(=O)N3CCC(O)(c4ccccc4)C3)cc2F)cn1 (racemic) [Example 180, racemic 1-{[4′-(5-Aminopyrazin-2-yl)-3′-fluorobiphenyl-2-yl]sulfonyl}-3-phenylpyrrolidin-3-ol]	0.002	0.037	–	–	–
CCSCc1ccccc1-c1ccc(-c2cnc(N)cn2)c(F)c1 [Example 234, 5-{2′-[(Ethylsulfanyl)methyl]-3-fluorobiphenyl-4-yl}pyrazin-2-amine formic acid salt]	0.025	0.238	–	–	–
CC1(NS(=O)(=O)c2ccccc2-c2ccc(-c3cnc(N)cn3)c(F)c2)COC1 [Example 173, 4′-(5-Aminopyrazin-2-yl)-3′-fluoro-N-(3-methyloxetan-3-yl)biphenyl-2-sulfonamide]	0.001	0.017	–	–	–
CC(C)(C)Sc1ccccc1-c1ccc(-c2cnc(N)cn2)c(F)c1 [Example 190, 5-[2′-(tert-Butylsulfanyl)-3-fluorobiphenyl-4-yl]pyrazin-2-amine]	0.058	0.471	–	–	–
CC(C)(C)NS(=O)(=O)c1ccccc1-c1ccc(-c2cnc(N)c(C(F)(F)F)c2)c(F)c1 [Example 452, 4′-[6-Amino-5-(trifluoromethyl)pyridin-3-yl]-N-tert-butyl-3′-fluorobiphenyl-2-sulfonamide trifluoroacetic acid salt]	–	–	–	1.95	0.081
Nc1cnc(-c2ccc(-c3ccccc3S(=O)(=O)N3CCNC[C@@H]3CO)cc2F)cn1 [Example 146, (R)-(1-((4′-(5-Aminopyrazin-2-yl)-3′-fluoro-[1,1′-biphenyl]-2-yl)sulfonyl)piperazin-2-yl)methanol]	0.019	0.168	–	–	–
CS(=O)(=O)c1ccccc1-c1ccc(-c2cnc(N)cn2)c(F)c1 [Example 1, 5-[3-Fluoro-2′-(methylsulfonyl)biphenyl-4-yl]pyrazin-2-amine]	0.217	0.86	–	–	–
CC(=O)NC1CCN(S(=O)(=O)c2ccccc2-c2ccc(-c3cnc(N)cn3)c(F)c2)CC1 [Example 75, N-(1-{[4′-(5-Aminopyrazin-2-yl)-3′-fluorobiphenyl-2-yl]sulfonyl}piperidin-4-yl)acetamide]	0.012	0.185	–	–	–
CC(C)(C)[C@H](CO)NS(=O)(=O)c1ccccc1-c1ccc(-c2cnc(N)cn2)c(F)c1 [Example 150, (R)-4′-(5-Aminopyrazin-2-yl)-3′-fluoro-N-(1-hydroxy-3,3-dimethylbutan-2-yl)-[1,1′-biphenyl]-2-sulfonamide]	0.001	0.011	–	–	–
N#CCCN1CCN(S(=O)(=O)c2ccccc2-c2ccc(-c3cnc(N)cn3)c(F)c2)CC1 [Example 174, 3-(4-{[4′-(5-Aminopyrazin-2-yl)-3′-fluorobiphenyl-2-yl]sulfonyl}piperazin-1-yl)propanenitrile]	0.002	0.023	–	–	–
Nc1cnc(-c2ccc(-c3ccccc3S(=O)(=O)N[C@@H]3CCCC[C@@H]3O)cc2F)cn1 [Example 87, 4′-(5-Aminopyrazin-2-yl)-3′-fluoro-N-[(1R,2S)-2-hydroxycyclohexyl]biphenyl-2-sulfonamide]	0.003	0.075	–	–	–

More lines, main results first:

Ki (human FLAP; [2]) [µM]	IC50 [1, 3] [µM]	Ki (human FLAP; wild type FLAP, HTRF format) [µM]	IC50 [1, 4] [µM]	SMILES	Ki (human FLAP; read-out: FLAP Binding wild type HTRF Ki) [µM]
–	–	0.0067	0.136	N#CC1(S(=O)(=O)c2ccccc2-c2ccc(-c3cnc(N)cn3)c(F)c2)CCCC1 [Example 730, 1-{[4′-(5-Aminopyrazin-2-yl)-3′-fluorobiphenyl-2-yl]sulfonyl}cyclopentanecarbonitrile]	–
–	–	0.0006	0.00564	Nc1cnc(-c2ccc(-c3cccnc3S(=O)(=O)C3CCCC3)cc2F)cn1 [Example 810, 5-(4-(2-(Cyclopentylsulfonyl)pyridin-3-yl)-2-fluorophenyl)pyrazin-2-amine hydrochloride]	–
–	–	0.273	0.122	CC(C)S(=O)(=O)c1ncccc1-c1ccc(-c2cnc(N)nc2)c(F)c1 [Example 825, 5-(2-Fluoro-4-{2-[(1-methylethyl)sulfonyl]pyridin-3-yl}phenyl)pyrimidin-2-amine]	–
–	–	0.183	> 10	CC(C)(C)NS(=O)(=O)c1ccccc1-c1ccc(-c2ccn3cnnc3c2)c(F)c1 [Example 444, N-tert-Butyl-3′-fluoro-4′-[1,2,4]triazolo[4,3-a]pyridin-7-ylbiphenyl-2-sulfonamide]	–
0.001	0.033	–	–	CNS(=O)(=O)c1ccccc1-c1ccc(-c2cnc3[nH]ccc3n2)c(F)c1 [Example 379, 3′-Fluoro-N-methyl-4′-(5H-pyrrolo[2,3-b]pyrazin-2-yl)biphenyl-2-sulfonamide]	–
0.002	0.077	–	–	O=S(=O)(c1ccccc1-c1ccc(-c2cnc3c(c2)OCCN3)c(F)c1)N1CCCCC1 [Example 386, 7-[3-Fluoro-2′-(piperidin-1-ylsulfonyl)biphenyl-4-yl]-3,4-dihydro-2H-pyrido[3,2-b][1,4]oxazine]	–
–	–	0.003	0.146	CC(C)(C)NS(=O)(=O)c1ccccc1-c1ccc(-c2ccc3[nH]cnc3c2)c(F)c1 [Example 422, 4′-(1H-Benzimidazol-5-yl)-N-tert-butyl-3′-fluorobiphenyl-2-sulfonamide]	–
0.013	0.204	–	–	Nc1ncc(-c2ccc(-c3ccccc3S(=O)(=O)N3CCCCC3)cc2F)cn1 [Example 301, 5-[3-Fluoro-2′-(piperidin-1-ylsulfonyl)biphenyl-4-yl]pyrimidin-2-amine trifluoroacetic acid salt]	–
–	–	0.0029	0.0257	Nc1cnc(-c2ccc(-c3ccccc3Sc3cncc(N)n3)cc2F)cn1 [Example 742, 5-{2′-[(6-Aminopyrazin-2-yl)sulfanyl]-3-fluorobiphenyl-4-yl}pyrazin-2-amine]	–
–	–	0.323	4.29	N#CCOc1ccccc1-c1ccc(-c2cnc(N)nc2)c(F)c1 [Example 643, {[4′-(2-Aminopyrimidin-5-yl)-3′-fluorobiphenyl-2-yl]oxy}acetonitrile]	–
–	–	0.006	0.571	Nc1cnc(-c2ccc(-c3ccccc3NS(=O)(=O)c3ccccc3)cc2F)cn1 [Example 479, N-[4′-(5-Aminopyrazin-2-yl)-3′-fluorobiphenyl-2-yl]benzenesulfonamide]	–
0.005	0.095	–	–	Nc1ccc(-c2ccc(-c3ccccc3S(=O)(=O)NC3CCCCC3)cc2F)cn1 [Example 346, 4′-(6-Aminopyridin-3-yl)-N-cyclohexyl-3′-fluoro-[1,1′-biphenyl]-2-sulfonamide]	–
–	–	0.034	1.13	CC(C)COc1ncccc1-c1ccc(-c2cnc3[nH]ccc3n2)c(F)c1 [Example 398, 2-{2-Fluoro-4-[2-(2-methylpropoxy)pyridin-3-yl]phenyl}-5H-pyrrolo[2,3-b]pyrazine]	–
0.397	0.574	–	–	Nc1ncc(-c2ccc(-c3ccccc3S(=O)(=O)N3CC4(C3)CS(=O)(=O)C4)cc2F)cn1 [Example 313, 6-((4′-(2-Aminopyrimidin-5-yl)-3′-fluoro-[1,1′-biphenyl]-2-yl)sulfonyl)-2-thia-6-azaspiro[3.3]heptane 2,2-dioxide]	–
–	–	0.0137	0.196	Nc1ncc(-c2ccc(-c3ccccc3S(=O)(=O)N3CCCC(CO)C3)cc2F)cc1F (racemic) [Example 672, (1-((4′-(6-Amino-5-fluoropyridin-3-yl)-3′-fluoro-[1,1′-biphenyl]-2-yl)sulfonyl)piperidin-3-yl)methanol]	–
–	–	0.25	3.4	Nc1cnc(-c2ccc(-c3ccc(C(F)(F)F)cc3F)cc2F)cn1 [Example 471, 5-[2′,3-Difluoro-4′-(trifluoromethyl)biphenyl-4-yl]pyrazin-2-amine]	–
–	–	0.0038	0.0377	Nc1ncc(-c2ccc(-c3cccnc3S(=O)(=O)C3CCCC3)cc2F)cn1 [Example 809, 5-(4-(2-(Cyclopentylsulfonyl)pyridin-3-yl)-2-fluorophenyl)pyrimidine-2-amine hydrochloride]	–
–	–	0.0024	0.0331	CC(C)(CO)CNS(=O)(=O)c1ccccc1-c1ccc(-c2ncc(N)nc2C#N)c(F)c1 [Example 714, 4′-(5-Amino-3-cyanopyrazin-2-yl)-3′-fluoro-N-(3-hydroxy-2,2-dimethylpropyl)biphenyl-2-sulfonamide]	–
–	–	0.019	0.509	CC(CO)NS(=O)(=O)c1ccccc1-c1ccc(-c2cnc(N)c(C#N)n2)c(F)c1 (stereo in doubt) [Example 412, 4′-(5-Amino-6-cyanopyrazin-2-yl)-3′-fluoro-N-[(1S)-2-hydroxy-1-methylethyl]biphenyl-2-sulfonamide]	–
